Assay results taken from ChEMBL document CHEMBL1938237, “Bioactive lipids from the sponge Spirastrella abata” (Bioorg Med Chem Lett, 2012).
pIC50: −log10 of the molar value. In brackets after ≈: the same amount, converted by molar mass.

Key:
Staphylococcus aureus = assay: Antibacterial activity against Staphylococcus aureus ATCC 6538p; format: functional
Proteus vulgaris = assay: Antibacterial activity against Proteus vulgaris ATCC 3851; format: functional
Aspergillus fumigatus = assay: Antifungal activity against Aspergillus fumigatus HIC 6094; format: functional
Candida albicans = assay: Antifungal activity against Candida albicans ATCC 10231; format: functional
K562 = assay: Cytotoxicity against human K562 cells; format: functional; conditions: read-out: LC50 (the source's name)
[1] = Inhibition of isocitrate lyase
[2] = Inhibition of Na+/K+ ATPase
Bacillus subtilis = assay: Antibacterial activity against Bacillus subtilis ATCC 6633; format: functional
Micrococcus luteus = assay: Antibacterial activity against Micrococcus luteus IFO 12708; format: functional
Salmonella typhimurium = assay: Antibacterial activity against Salmonella Typhimurium ATCC 14028; format: functional, Salmonella enterica subsp. enterica serovar Typhimurium; conditions: Salmonella enterica
Escherichia coli = assay: Antibacterial activity against Escherichia coli ATCC 35270; format: functional
Trichophyton rubrum = assay: Antifungal activity against Trichophyton rubrum IFO 9185; format: functional
[3] = tested on: Trichophyton mentagrophytes; assay: Antifungal activity against Trichophyton mentagrophytes IFO 40996; format: functional

| Structure (SMILES) | MIC (Staphylococcus aureus) [µg/mL] | MIC (Proteus vulgaris) [µg/mL] | MIC (Aspergillus fumigatus) [µg/mL] | MIC (Candida albicans) [µg/mL] | CC50 (K562) [µM] | pIC50 [1] | pIC50 [2] | MIC (Bacillus subtilis) [µg/mL] | MIC (Micrococcus luteus) [µg/mL] | MIC (Salmonella typhimurium) [µg/mL] | MIC (Escherichia coli) [µg/mL] | MIC (Trichophyton rubrum) [µg/mL] | MIC [3] [µg/mL] |
| --- | --- | --- | --- | --- | --- | --- | --- | --- | --- | --- | --- | --- | --- |
| CCCCCC[C@H]1C[C@H]1CCCCCCCCCC(=O)OC[C@@H](O)COP(=O)([O-])OCC(O)CO.[Na+] (relative stereo) | > 100 | > 100 | > 100 | 13 | 4 | 4.06 | 5.40 |  |  |  |  |  |  |
| O=C(O)CC[N+](=O)[O-] |  |  |  |  |  | 6.00 |  |  |  |  |  |  |  |
| CC(C)CCCCCCCC/C=C/C[C@H](OS(=O)(=O)O)[C@H](O)[C@H](N)CO | > 100 | 100 (≈ 253 µM) | > 100 | > 100 | 8 | 4.62 | 4.68 | 100 (≈ 253 µM) | 100 (≈ 253 µM) | 100 (≈ 253 µM) | > 100 | > 100 | > 100 |
| C[C@@H]1O[C@@H](O[C@H]2C[C@@H](O)[C@]3(CO)[C@H]4[C@H](O)C[C@]5(C)[C@@H](C6=CC(=O)OC6)CC[C@]5(O)[C@@H]4CC[C@]3(O)C2)[C@H](O)[C@H](O)[C@H]1O [OUABAIN] |  |  |  |  |  |  | 5.40 |  |  |  |  |  |  |
| CCCCCCCCCC/C=C/C[C@H](OS(=O)(=O)O)[C@H](O)[C@H](N)CO | > 100 | 25 (≈ 65.5 µM) | > 100 | > 100 | 7 | 4.70 | 4.68 | 12 (≈ 31.5 µM) | 100 (≈ 262 µM) | > 100 | > 100 | > 100 | > 100 |
| COc1cccc2c1C(=O)c1c(O)c3c(c(O)c1C2=O)C[C@@](O)(C(=O)CO)C[C@@H]3O[C@H]1C[C@H](N)[C@H](O)[C@H](C)O1 [DOXORUBICIN] |  |  |  |  | 7 |  |  |  |  |  |  |  |  |
| C[C@@H]1[C@H](O)[C@@H](C)/C=C/C=C/C=C/C=C/C=C/C=C/C=C/[C@H](O[C@@H]2O[C@H](C)[C@@H](O)[C@H](N)[C@@H]2O)C[C@@H]2O[C@](O)(C[C@@H](O)C[C@@H](O)[C@H](O)CC[C@@H](O)C[C@@H](O)CC(=O)O[C@H]1C)C[C@H](O)[C@H]2C(=O)O [AMPHOTERICIN B] |  |  | 1 (≈ 1.08 µM) | 1 (≈ 1.08 µM) |  |  |  |  |  |  |  | 2 (≈ 2.16 µM) | 2 (≈ 2.16 µM) |
| CC1(C)S[C@@H]2[C@H](NC(=O)[C@H](N)c3ccccc3)C(=O)N2[C@H]1C(=O)O [AMPICILLIN] | 1 (≈ 2.86 µM) | 1 (≈ 2.86 µM) |  |  |  |  |  | 2 (≈ 5.72 µM) | 2 (≈ 5.72 µM) | 2 (≈ 5.72 µM) | 6 (≈ 17.2 µM) |  |  |
| CCCCCCCCCCC/C=C/C[C@H](OS(=O)(=O)O)[C@H](O)[C@H](N)CO | 50 (≈ 126 µM) | 25 (≈ 63.2 µM) | 100 (≈ 253 µM) | 50 (≈ 126 µM) | 8 | 5.70 | 4.60 | 6 (≈ 15.2 µM) | 25 (≈ 63.2 µM) | 100 (≈ 253 µM) | > 100 | > 100 | 50 (≈ 126 µM) |
